{
  "source": "patent US12121514B2",
  "about": "“Nonselective metabotropic glutamate receptor activators for treatment of attention deficit disorder and 22Q syndrome” (THE CHILDREN'S HOSPITAL OF PHILADELPHIA, priority 2015, dated 2024)",
  "type_in_all_cases": "in vivo, human",
  "key": {"[1]": {"test_system": "subject with ADHD, ODD and conduct disorder (CD)", "assay": "Vanderbilt CD score (items 27-40), Phase Ib trial of NFC-1", "settings": "Subject 130", "text": "The Vanderbilt Rating Scale is a measure that can be completed by parents or teachers (separate forms, see Vanderbilt Rating Scale Parents and Vanderbilt Rating Scale Teachers). The Vanderbilt scale rates the child's behavior on items such as attention, finishing tasks, hyperactivity, difficulty waiting, and measures of conduct or oppositional […] disorders-as well as measures of overall school performance and interactions with others. The first 18 items on the Vanderbilt scale correspond to those of the ADHD Rating Scale IV above while the Vanderbilt scale also includes items 19-47 related to other mental disorders including ODD (items 19-26), conduct disorder (items 27-40), anxiety (items 41, 42, and 47), and depression (items 43-46). Each of the behavioral assessment items on the Vanderbilt Scale are rated 0, 1, 2, or 3, with 0=never occurring; 1=occasionally, 2=often, and 3=very often. Thus, the ADHD Rating Scale IV, ADHD Rating Scale V, and items 1-18 of the Vanderbilt Rating Scale are equivalent scales, while additional items on the Vanderbilt Scale assess co-morbid phenotypes and disorders. One subject screening positive for ODD (no. 130) also screened positive for conduct disorder (CD), based on scores of 2 or 3 for 3 out of the […] behaviors assessed by items 27-40 of the Vanderbilt Scale at enrollment and again at week 1. […]"}, "[2]": {"test_system": "ADHD subjects with anxiety", "assay": "Vanderbilt anxiety items 41, 42 and 47, Phase Ib trial of NFC-1", "settings": "two subjects with scores of 3 on 2 of the 3 items at enrollment; week 5", "text": "The Vanderbilt Rating Scale is a measure that can be completed by parents or teachers (separate forms, see Vanderbilt Rating Scale Parents and Vanderbilt Rating Scale Teachers). The Vanderbilt scale rates the child's behavior on items such as attention, finishing tasks, hyperactivity, difficulty waiting, and measures of conduct or oppositional defiant disorders—as well as measures of overall school performance and interactions with others. The first 18 items on the Vanderbilt scale correspond to those of the ADHD Rating Scale IV above while the Vanderbilt scale also includes items 19-47 related to other mental disorders including ODD (items 19-26), conduct disorder (items 27-40), anxiety (items 41, 42, and 47), and depression (items 43-46). Each of the behavioral assessment items on the Vanderbilt Scale are rated 0, 1, 2, or 3, with 0=never occurring; 1=occasionally, 2=often, and 3=very often. Thus, the ADHD Rating Scale IV, ADHD Rating Scale V, and items 1-18 of the Vanderbilt Rating Scale are equivalent scales, while additional items on the Vanderbilt Scale assess co-morbid phenotypes and disorders.\nTwo subjects had maximum scores of 3 on 2 of the 3 Vanderbilt items 41, 42, and 47 that are related to anxiety at enrollment. […] One of those subjects also scored 3 on 3 of the 4 Vanderbilt items related to depression (items 43-46) at enrollment and scored 3 on all 4 items at week 1."}, "[3]": {"test_system": "adolescent subjects with ADHD and at least one genetic alteration in an mGluR network gene", "assay": "QUOTIENT ADHD test, Phase Ib trial of NFC-1", "settings": "Tier-1 genetic group; week 5 (400 mg twice daily); from just over 100; P<0.05", "text": "Quotient ADHD scores use a medical device to measure hyperactivity, attention, and impulsivity in patients with ADHD. The Quotient ADHD tool uses motion tracking technology to track a patient's micro-movements while they complete a 15-20-minute computerized test. Following the patient's completion of the test, patterns of motions, the accuracy of responses, and fluctuations in attention state can be analyzed. All efficacy assessments, except actigraphy, were made at study enrollment (“enrollment baseline”) and again, including actigraphy, once-per-week for the placebo week (“week 1” or “placebo baseline”) and at each of the 4 weeks of NFC-1 treatment. These efficacy measures include items 1-18 of the Vanderbilt scale assessing symptoms related to inattentiveness and hyperactivity-impulsiveness as well as additional questions 19-47 of the Vanderbilt scale assessing other behavioral symptoms (conducted by parent), actigraphy for quantitative measurement of activity, Quotient® ADHD test for objective measurement of micro-motion and shifts in attention state, PERMP-Math test, and CGI-I and CGI-S for assessment of global functioning. […]"}},
  "data": [
    {"smiles": "O=C1CC[C@H](C(=O)N2CCCCC2)N1", "note": "[NFC-1, fasoracetam monohydrate]", "values": [
      {"measurement": "improvement in Vanderbilt CD score", "setting": "[1]; week 1 to week 5", "result": 4, "unit": "points"},
      {"measurement": "Vanderbilt CD score", "setting": "[1]; week 5, out of 16, 16/16 at week 1", "result": 12},
      {"measurement": "scores on Vanderbilt anxiety items 41, 42 and 47", "setting": "[2]", "result": "scored 3 on all 3 items"},
      {"measurement": "normalized inattention value (QUOTIENT ADHD test)", "setting": "[3]", "result": "about 90"}
    ]}
  ]
}
